For one test, the target named is T1, ETA (Oryctolagus cuniculus, UniProt A5A8K3).
T1 sequence (A5A8K3 21-427): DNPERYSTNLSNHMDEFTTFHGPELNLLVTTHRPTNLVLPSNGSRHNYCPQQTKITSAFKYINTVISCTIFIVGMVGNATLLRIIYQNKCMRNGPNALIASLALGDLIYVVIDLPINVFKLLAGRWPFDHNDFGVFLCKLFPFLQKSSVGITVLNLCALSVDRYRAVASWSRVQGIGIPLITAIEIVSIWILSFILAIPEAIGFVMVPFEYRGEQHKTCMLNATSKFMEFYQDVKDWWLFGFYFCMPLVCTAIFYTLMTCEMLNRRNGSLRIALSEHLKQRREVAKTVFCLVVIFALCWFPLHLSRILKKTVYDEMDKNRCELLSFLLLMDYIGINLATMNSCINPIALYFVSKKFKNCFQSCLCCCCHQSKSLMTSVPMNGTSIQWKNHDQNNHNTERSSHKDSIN
The conditions noted are these: ERBA-A IC50, [125I]-ET-1, rabbit renal artery vascular smooth muscle cells.

The next test deals with T2, human ETB receptor (Homo sapiens, UniProt P24530).
T2 construct: expressed in transfected cells; host or cells: CHO-K1 cells, pRc-CMW (so in the source) expression vector, electroporation; membranes used
T2 sequence (P24530 27-442): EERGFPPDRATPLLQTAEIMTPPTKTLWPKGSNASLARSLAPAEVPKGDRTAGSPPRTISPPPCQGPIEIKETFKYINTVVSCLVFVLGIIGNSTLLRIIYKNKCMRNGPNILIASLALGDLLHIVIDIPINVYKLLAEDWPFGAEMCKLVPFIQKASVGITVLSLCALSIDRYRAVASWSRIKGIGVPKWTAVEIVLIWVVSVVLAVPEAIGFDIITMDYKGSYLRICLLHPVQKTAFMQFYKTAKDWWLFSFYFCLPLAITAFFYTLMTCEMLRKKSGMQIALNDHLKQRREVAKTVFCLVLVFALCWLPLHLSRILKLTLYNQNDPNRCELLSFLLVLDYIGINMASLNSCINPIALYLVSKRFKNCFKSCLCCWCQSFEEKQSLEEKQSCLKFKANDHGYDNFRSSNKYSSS
The experiment in a line: ERBA-B: [125I]-ET-1 binding, recombinant human ETB receptor expressed in CHO-K1 cells. The conditions noted are these: human cloned ETB receptor, read-out: ERBA-B IC50, human cloned receptor data. How it is done:
Count filters for radioactivity in gamma counter.
The above process has also been modified by using human recombinant CHO-K1 cells.
The tissue used for human ETB was recombinant human ETB receptor expressed in CHO-K1 cells (chinese hamster ovary cells). The gene for human ETB receptor was cloned and inserted into the pRc-CMW expression vector, then transfected into CHO-K1 cells by electroporation. For binding assays, membranes (0.7 mg protein) of CHO-K1 cells expressing recombinant human ETB receptor were used.
^d Human cloned receptor data

Molecules are shown by their SMILES. pIC50: −log10 of the molar value. Structures can show the parent of a compound that is named as a salt. A value given as a limit tells only on which side of the number the result lay.

The compound `COc1ccc(CC2=C(c3ccc(N(C)C)cc3)C(=O)OC2(O)c2ccc(Cl)cc2)cc1OC` (racemic) [Example 56, 2(5H)-Furanone, 5-(4-chlorophenyl)-4-[(3,4-dimethoxyphenyl)methyl]-3-[4-(dimethylamino)phenyl]-5-hydroxy-, (±)-] showed a pIC50 against ETA of 4.85. On the same count and under the same terms, with `CC(C)c1ccc(CC2=C(c3ccc(N(C)C)cc3)C(=O)OC2(O)c2ccc(Cl)cc2)cc1` (racemic) [Example 57, 2(5H)-Furanone, 5-(4-chlorophenyl)-3-[(4-(dimethylamino)phenyl]-5-hydroxy-4-[[4-(1-methylethyl)phenyl]methyl]-, (±)-] the figure was 4.96. Take `COc1ccc(C2(O)OC(=O)C(c3ccc4c(c3)OCO4)=C2Cc2cncc3ccccc23)cc1` (racemic) [Example 164, monohydrochloride]: the pIC50 was 5.40 on human ETB receptor and 7.30 against ETA. For `COc1ccc(C2(O)OC(=O)C(c3ccc4c(c3)OCO4)=C2Cc2cccnc2)cc1` (racemic) [Example 165, 2(5H)-Furanone, 3-(1,3-benzodioxol-5-yl)-5-hydroxy-5-(4-methoxyphenyl)-4-(3-pyridinylmethyl)-, (±)-, monohydrochloride], the pIC50 at human ETB receptor is 4.60; against ETA, 7.40. The corresponding values for `COc1ccc(C2(O)OC(=O)C(c3cc(OC)cc(OC)c3)=C2Cc2cccnc2)cc1` (racemic) [Example 166, 2(5H)-Furanone, 3-(3,5-dimethoxyphenyl)-5-hydroxy-5-(4-methoxyphenyl)-4-(3-pyridinylmethyl)-, (±)-, monohydrochloride] are < 5.60 and 7.40.

With `COc1ccc(C2(O)OC(=O)C(c3ccc4c(c3)OCO4)=C2Cc2ccccc2)cc1C` (racemic) [Example 290, 2(5H)-Furanone, 3-(1,3-benzodioxol-5-yl)-5hydroxy-5-(4-methoxy-3-methylphenyl)-4-(phenylmethyl)-, (±)-], at ETA, the pIC50 was 7.92.

As for `COc1ccc(C2(O)OC(=O)C(c3ccc4c(c3)OCO4)=C2Cc2ccc(OCc3ccccc3)cc2)cc1` (stereo not drawn) [Example 86, 3-Benzo[1,3]dioxol-5-yl-4-(4-benzyloxybenzyl)-5-hydroxy-5-(4-methoxyphenyl) -5H-furan-2-one], on ETA, the pIC50 was 6.51. Same read-out and setting: as for `COc1ccc(C2(O)OC(=O)C(c3ccc4c(c3)OCO4)=C2Cc2ccc(C(F)(F)F)cc2)cc1` (stereo not drawn) [Example 88, 3-Benzo[1,3]dioxol-5-yl-5-hydroxy-5-(4-methoxyphenyl)-4-(4-trifluoromethylbenzyl)-5H-furan-2-one], the figure is 6.60; as for `COc1ccc(C2(O)OC(=O)C(c3ccc(Cl)c(Cl)c3)=C2Cc2ccccc2)cc1` (stereo not drawn) [Example 120, 4-Benzyl-3-(3,4-dichlorophenyl)-5-hydroxy-5-(4-methoxyphenyl)-5H-furan-2-one], 6.07. The compound `COc1ccc(C2(O)OC(=O)C(c3ccc(Cl)c(Cl)c3)=C2Cc2ccc(C(C)C)cc2)cc1` (stereo not drawn) [Example 121, 3-(3,4-Dichlorophenyl)-5-hydroxy-4-(4-isopropylbenzyl)-5-(4-methoxyphenyl)-5H-furan-2-one] gave a pIC50 against ETA of 7.13. Same read-out and setting: as for `COc1ccc(C2(O)OC(=O)C(c3ccc(F)c(F)c3)=C2Cc2ccccc2)cc1` (stereo not drawn) [Example 143, 4-Benzyl-3-(3,4-difluorophenyl)-5-hydroxy-5-(4-methoxyphenyl)-5H-furan-2-one], the figure is 5.72; as for `COc1ccc(C2(O)OC(=O)C(c3ccc(F)c(F)c3)=C2Cc2ccc(C(C)C)cc2)cc1` (stereo not drawn) [Example 144, 3-(3,4-Difluorophenyl)-5-hydroxy-4-(4-isopropylbenzyl)-5-(4-methoxyphenyl)-5H-furan-2-one], 6.54. On ETA, `COc1ccc(C2(O)OC(=O)C(c3ccc(F)c(F)c3)=C2Cc2ccc(N(C)C)cc2)cc1` (stereo not drawn) [Example 145, 3-(3,4-Difluorophenyl)-4-(4-dimethylaminobenzyl)-5-hydroxy-5-(4-methoxyphenyl)-5H-furan-2-one] had a pIC50 of 5.77.

For the compound `COc1ccc(C2(O)OC(=O)C(c3cc(Cl)cc(Cl)c3)=C2Cc2ccccc2)cc1` (stereo not drawn) [Example 149, 4-Benzyl-3-(3,5-dichloro-phenyl)-5-hydroxy-5-(4-methoxy-phenyl)-5H-furan-2-one], the pIC50 on ETA is 6.22. Same read-out and setting: as for `COC(=O)c1ccc(C2(O)OC(=O)C(c3ccc4c(c3)OCO4)=C2Cc2ccccc2)cc1` (stereo not drawn) [Example 198, 4-(4-Benzo[1,3]dioxol-5-yl-3-benzyl-2-hydroxy-5-oxo-2,5-dihydrofuran-2-yl)b enzoic acid methyl ester], the figure is 6.39; as for `Cc1ccc(C2(O)OC(=O)C(c3ccc4c(c3)OCO4)=C2Cc2ccccc2)cc1C` (stereo not drawn) [Example 212, 3-Benzo[1,3]dioxol-5-yl-4-benzyl-5-(3,4-dimethylphenyl)-5-hydroxy-5H-furan-2-one], 5.89.

`COc1ccccc1C1(O)OC(=O)C(c2ccc3c(c2)OCO3)=C1Cc1ccccc1` (stereo not drawn) [Example 249, 3-Benzo[1,3]dioxol-5-yl-4-benzyl-5-hydroxy-5-(2-methoxyphenyl)-5H-furan-2-one]: at ETA, the pIC50 was 6.30. Still for that read-out and setting: as for `COc1ccc(C2(O)OC(=O)C(c3ccc4c(c3)OCO4)=C2Cc2cccc3ccccc23)cc1` (stereo not drawn) [Example 250, 3-Benzo[1,3]dioxol-5-yl-5-hydroxy-5-(4-methoxyphenyl)-4-naphthalen-1-ylmethyl-5H-furan-2-one], the figure is 7.89; as for `CCc1ccc(C2(O)OC(=O)C(c3ccc4c(c3)OCO4)=C2Cc2ccccc2)cc1` (stereo not drawn) [Example 266, 3-Benzo[1,3]dioxol-5-yl-4-benzyl-5-(4-ethylphenyl)-5-hydroxy-5H-furan-2-one], 6.22. Same read-out and setting: as for `CSc1ccc(C2(O)OC(=O)C(c3ccc4c(c3)OCO4)=C2Cc2ccccc2)cc1` (stereo not drawn) [Example 271, 3-Benzo[1,3]dioxol-5-yl-4-benzyl-5-hydroxy-5-(4-methylsulfanylphenyl)-5H-fu ran-2-one], the figure is 6.41.

In turn, `COc1ccc(C2(O)OC(=O)C(c3cc(OC)cc(OC)c3)=C2CC2CCCCC2)cc1` (stereo not drawn) [Example 275, 2(5H)-Furanone, 4-(cyclohexylmethyl)-3-(3,5-dimethoxyphenyl)-5-hydroxy-5-(4-methoxyphenyl)] had a pIC50 at ETA of 7.92. Still for that read-out and setting: as for `COc1ccc(C2(O)OC(=O)C(c3ccc4c(c3)OCO4)=C2Cc2cccc(C(=O)O)c2)cc1` (stereo not drawn) [Example 292, 3-[4-Benzo[1,3]dioxol-5-yl-2-hydroxy-2-(4-methoxyphenyl)-5-oxo-2,5-dihydro-furan-3-ylmethyl]-benzoic acid], the figure is 7.08; as for `COc1ccc(C2(O)OC(=O)C(c3ccc4c(c3)OCO4)=C2Cc2ccc(OC)c(OC)c2OC)cc1` (stereo not drawn) [Example 305, 3-Benzo[1,3]dioxol-5-yl-5-hydroxy-5-(4-methoxy-phenyl)-4-(2,3,4-trimethoxy-benzyl)-5H-furan-2-one], 7.48. As to `COc1ccc(C(=O)/C(Cc2cc(OC)c(OC)c(OC)c2)=C(\C(=O)O)c2cc(OC)c3c(c2)OCO3)cc1C` [Example 369, Sodium 2-(7-Methoxy-benzo[1,3]dioxol-5-yl)-3-(4-methoxy-3-methyl-benzoyl)-4-(3,4,5-trimethoxyphenyl)-but-2-enoate], the pIC50 on human ETB receptor was 6.48.

In general, pIC50 refers to the IC50 on a negative log10 scale, so that one unit is a factor of ten.

(Values after patent publication US5691373A, “Nonpeptide endothelin antagonists I” (Warner-Lambert Company, priority 1995, dated 1997).)
